From article PMC6383948, “Evaluation of a class of isatinoids identified from a high-throughput screen of human kinase inhibitors as anti-Sleeping Sickness agents” (PLoS Neglected Tropical Diseases, 2019)
pEC50: −log10 of the molar value. ≈ marks a conversion by molar mass, not a printed value. Like-named read-outs stand apart in the source and are kept apart here.

Experiments:
[1] = system: T. b. brucei; test: T. b. brucei growth inhibition EC50 assay (resazurin, 72 h); type: cell-based, Trypanosoma brucei brucei Lister 427; conditions: for EC50: 72 h, resazurin, error within ±0.20 (Table 2) or ±0.08 (Table 3) log units, read-out: T.b.b. pEC50 (converted)
Experimental: Mid-log phase growth T. b. brucei was diluted to a working cell density of 2,750 cells/mL and 90 μL/well dispensed into 96-well flat-bottom transparent assay plates (Nunc). Ten μL/well from intermediate plates were added. The final top concentration of compounds was 40 μM in 0.4% DMSO per well.
Assay plates were incubated for 72 h at 37°C and 5% CO2. Four hours prior to the end of the incubation, 20 μL of a 440 μM resazurin solution in prewarmed HMI-9 was added to each well and incubated for another 4 h. Fluorescence was then measured in an Infinite F200 plate reader (Tecan) at 550 nm (excitation filter) and 590 nm (emission filter). A 4-parameter equation was employed to fit the dose-response curves and determine of EC50 using the SigmaPlot 13.0 software. Assays were performed in duplicate at least twice, to achieve a minimal n = 3 per dose response.
Bloodstream Trypanosoma brucei brucei Lister 427 was cultured in Hirumi’s modified Iscove’s medium (HMI-9), supplemented with 10% heat-inactivated FBS, at 37 °C and 5% CO2 in T-25 vented flask (Corning®).
For dose-response experiments, compound plates were prepared for each analogue by serial 3-fold dilutions in 100% DMSO. Five concentration points (mammalian cytotoxicity) or ten concentration points (parasite growth inhibition), were made in 96-well transparent Nunclon plates. Pentamidine is routinely included in compound plates as internal quality control, and plates are stored sealed at -20 °C for no more than four weeks.

[2] = system: MRC5-SV2 cell line; test: Cytotoxicity assay in MRC5 (resazurin, 48 h); type: cell-based, human; conditions: MRC5 toxicity
Experimental: For dose-response experiments, compound plates were prepared for each analogue by serial 3-fold dilutions in 100% DMSO. Five concentration points (mammalian cytotoxicity) or ten concentration points (parasite growth inhibition), were made in 96-well transparent Nunclon plates. Pentamidine is routinely included in compound plates as internal quality control, and plates are stored sealed at -20 °C for no more than four weeks. Intermediate plates were made as described, adding 95 μL of DMEM complete media to 5 μL of compound per well setting a 5% DMSO amount. Log-phase MRC5 cells were removed from a T-75 TC flask using TrypLE® Express (Thermo®) and dispersed by gentle pipetting. Cell density was adjusted to working concentration in prewarmed DMEM medium: 25,000 cells in 90 μL of culture were plated in 96-well transparent Nunclon plates and let to settle for 24 h at 37 °C and 5% CO2. After settling incubation, 10 μL of fresh made intermediate plate were added per well: final maximal concentration for compounds was 50 μM in 0.5% DMSO per well. […] Fluorescence was read in an Infinite F200 plate reader (Tecan®) at 550 nm (excitation filter) and 590 nm (emission filter). A 4-parameter equation was used to fit the dose-response curves and determination of EC50 by SigmaPlot ® 13.0 software. Assays were performed in duplicate at least twice for positive compounds, to achieve a minimal n=3 per dose response.

[3] = Aqueous pH 7.4 solubility; type: physicochemical; conditions: pH 7.4 phosphate buffer, 25 °C, 20-24 h, read-out: Aq. Solubility
Experimental: Compounds are dried down from 10 mM DMSO solutions using centrifugal evaporation technique. Phosphate buffer (0.1 M pH 7.4) added and StirStix inserted in the glass vials, shaking is then performed at a constant temperature of 25 °C for 20-24 h. This step is followed by double centrifugation with a tip wash in between, to ensure that no residues of the dried compound are interfering. The solutions are diluted before analysis and quantification using LC/MS/MS is performed.

[4] = Human liver microsomal CLint; type: in vitro ADME; conditions: for microsomal CLint: human, liver microsomes, read-out: HLM Clint
Experimental: In vitro intrinsic clearance determined from human liver microsomes using a standard approach. Following incubation and preparation, the samples are analyzed using LC/MS/MS.

[5] = Rat hepatocyte CLint; type: in vitro ADME; conditions: rat hepatocytes
Experimental: In vitro intrinsic clearance determined from rat hepatocytes using a standard approach. Following incubation and preparation, the samples are analyzed using LC/MS/MS.

[6] = Human plasma protein binding (equilibrium dialysis); type: in vitro ADME; conditions: pH 7.4, read-out: PPB (converted)
Experimental: PPB is determined using equilibrium dialysis (RED device) to separate free from bound compound. The amount of compound in plasma (10 µM initial concentration) and in dialysis buffer (pH 7.4 phosphate buffer) is measured by LC-MS/MS after equilibration at 37 °C in a dialysis chamber. The fraction unbound (fu) is reported.

[7] = system: T. cruzi; test: β-D-Galactosidase transgenic T. cruzi assay (amastigote-infected L6 cells); type: cell-based, T. cruzi Tulahuen C4 strain; conditions: Trypanosoma cruzi, 96 h, read-out: T. cruzi pEC50 (converted)
Experimental: The T. cruzi Tulahuen C4 strain, expressing the β-galactosidase gene (LacZ) and L6 rat skeletal muscle cells, used as host cells, were cultured in RPMI-1640 supplemented with 10% iFBS, 2 mM L-glutamine, 100 U/mL penicillin, and 100 μg/mL streptomycin at 37 °C and 5% CO2.
A Thermo Scientific Multidrop Combi dispenser (MTX Lab Systems, Vienna, VA) was used to dispense 90 μL of T. cruzi amastigote–infected L6 cell culture (4×10^3 infected L6 cells per well) into 96-well Corning assay plates (Corning Inc., Corning, NY) already containing 10 μL of the compounds to be screened and controls. The plates were incubated at 37 °C for 96 h. Then, 30 μL of 100 μM CPRG and 0.1% NP40 diluted in PBS were added to each well, and the plates were incubated for 4 h at 37 °C in the dark. Absorbance at 585 nm was measured in a Vmax kinetic microplate reader ([…]). Compound activities were normalized using the in-plate negative (benznidazole at 10 μg/mL) and positive (0.2% DMSO) growth controls.

[8] = system: L. donovani; test: EC50 in L. donovani (infected THP-1 macrophages, luciferase); type: cell-based, Leishmania donovani MHOM/ET/67/HU3; conditions: Leishmania donovani, 72 h, read-out: L. donovani pEC50 (converted)
Experimental: Leishmania donovani MHOM/ET/67/HU3 cells with the luciferase gene integrated into the parasite genome[1] were grown at 28 °C in RPMI 1640-modified medium (Invitrogen) supplemented with 20% FBS with […] of hygromycin B.
The Human myelomonocytic cell line THP-1 was grown at 37 °C and 5% CO2 in RPMI-1640 supplemented with 10% iFBS, 2 mM […], 100 U/mL penicillin and […] streptomycin. 3 x 10^4 THP-1 cells per well in 96-well plates were differentiated to macrophages with 20 ng/mL of PMA treatment for 48 h followed by 24 h of culture in fresh medium.
Macrophage-differentiated THP-1 cells were infected at a macrophage/parasite ratio of 1/10 with stationary L. donovani promastigotes for 24 h at 35 °C and 5% CO2, and extracellular parasites were removed by washing with PBS. Infected cell cultures were then incubated with different compounds concentrations at 37 °C for 72 h. Luminescence was measured using the Promega kit luciferase assay system (Promega, Madison, WI). Assays were performed in duplicate at least twice, to achieve a minimal n=3 per dose response.

[9] = aqueous buffer, thermodynamic from solid

Row | Structure (SMILES) | EC50 ([1]; Trypanosoma brucei) [nM] | MRC5 pTC50 [2] | solubility [3, 9] [µM] | microsomal CLint [4] [µL/min/mg] | hepatocyte CLint [5] [µL/min/1e6 cells] | fraction unbound at 10 µM [6] | EC50 [7] [nM] | EC50 [8] [nM] | solubility [3] [µM] | activity against T. brucei [1] | pEC50 ([1]; Trypanosoma brucei, T. brucei, read-out: EC50) | HLM Clint ([4]; human liver microsomes) [µL/min/mg]
1 | CN(C)S(=O)(=O)c1ccc(N/N=C2\C(=O)Nc3ccccc32)cc1 [NEU-2118, (Z)-N,N-Dimethyl-4-(2-(2-oxoindolin-3-ylidene)hydrazinyl)benzenesulfonamide] | 1580 | <4.3 | < 1 | 38.2 | 146 | 0.01 | > 10000 | > 10000 | – | – | – | –
2 | CNS(=O)(=O)c1ccc(N/N=C2\C(=O)Nc3ccccc32)cc1 [NEU-2124, (Z)-N-Methyl-4-(2-(2-oxoindolin-3-ylidene)hydrazinyl)benzenesulfonamide] | 5010 | <4.3 | < 39 | 20.3 | 36.4 | 0.02 | > 10000 | > 10000 | > 10 | – | – | –
3 | CNS(=O)(=O)c1ccc(N/N=C2\C(=O)Nc3cccc(C=C(C)C)c32)cc1 [NEU-4391, (Z)-N-Methyl-4-(2-(4-(2-methylprop-1-en-1-yl)-2-oxoindolin-3-ylidene)hydrazinyl)benzenesulfonamide] | 158 | <4.3 | – | 8.6 | 103 | < 0.04 | 2240 | > 5010 | 4 (≈ 1.54 µg/mL) | sub-micromolar activity | 7.08 | 8.63
